Reference: patent publication US9512420B2, “Use of N-acetylneuraminic acid aldolase in catalytic synthesis of N-acetylneuraminic acid” (Nanjing University of Technology, priority 2013, dated 2016)
Blank lines part the entries; values can stand above or below the molecule they belong to.

Legend:
CgNal = CgNal (Corynebacterium glutamicum, UniProt Q8NMD2); assay: Effects of metal ions and surfactant on the CgNal activity; format: biochemical, Corynebacterium glutamicum ATCC 13032; conditions: for effect on reaction of CgNal in the decomposing Neu5Ac direction / effect on reaction of CgNal in the synthesizing Neu5Ac direction: pH 7.5; for overall effect on CgNal enzyme activity / effect on superiority of Neu5Ac synthesis over Neu5Ac decomposition: pH 8.5
[1] = substrate: CC(=O)C(=O)O; assay: purified protein, by the assay type; conditions: substrate of CgNal, co-substrate fixed at 100 mM for ManNAc and pyruvic acid, 37.0 °C
[2] = substrate: CC(=O)N[C@@H]1C(O)O[C@H](CO)[C@@H](O)[C@@H]1O; assay: purified protein, by the assay type; conditions: substrate of CgNal, co-substrate fixed at 100 mM for ManNAc and pyruvic acid, 37.0 °C
[3] = substrate: CC(=O)N[C@H]1[C@H]([C@H](O)[C@H](O)CO)OC(O)(C(=O)O)C[C@@H]1O; assay: purified protein, by the assay type; conditions: substrate of CgNal, co-substrate fixed at 100 mM for ManNAc and pyruvic acid, 37.0 °C

Molecule: CCCCCCCCCCCCCCCC[N+](C)(C)C.[Br-] [CTAB]
- effect on reaction of CgNal in the decomposing Neu5Ac direction (CgNal): inhibited
- overall effect on CgNal enzyme activity (CgNal): decreased the enzyme activity

Molecule: NiSO4
- effect on reaction of CgNal in the decomposing Neu5Ac direction (CgNal): inhibited
- effect on reaction of CgNal in the synthesizing Neu5Ac direction (CgNal): promoted

Molecule: CoCl2
- effect on reaction of CgNal in the decomposing Neu5Ac direction (CgNal): inhibited
- effect on reaction of CgNal in the synthesizing Neu5Ac direction (CgNal): promoted

Molecule: ZnCl2
- effect on reaction of CgNal in the decomposing Neu5Ac direction (CgNal): inhibited
- effect on reaction of CgNal in the synthesizing Neu5Ac direction (CgNal): promoted
- effect on superiority of Neu5Ac synthesis over Neu5Ac decomposition (CgNal): promoted
- overall effect on CgNal enzyme activity (CgNal): decreased the enzyme activity

- effect on reaction of CgNal in the decomposing Neu5Ac direction (CgNal; 5 mM additive): inhibited
- effect on reaction of CgNal in the synthesizing Neu5Ac direction (CgNal; 5 mM additive): promoted
- effect on superiority of Neu5Ac synthesis over Neu5Ac decomposition (CgNal; 5 mM additive): promoted
- overall effect on CgNal enzyme activity (CgNal; 5 mM additive): decreased the enzyme activity
Molecule: CCCCCCCCCCCCOS(=O)(=O)[O-].[Na+] [SDS]

B1: CgNal (Corynebacterium glutamicum ATCC 13032) (protein)
chain: MASATFTGVIPPVMTPLHADGSVDVESLRKLVDHLINGGVDGLFALGSSGEAAFLTRAQRKLALTTIIEHTAGRVPVTAGVIETTTARVIELVEDALEAGAEGLVATAPFYTRTHDVEIEEHFRKIHAAAPELPLFAYNIPVSVHSNLNPVMLLTLAKDGVLAGTKDSSGNDGAIRSLIEARDDAGLTEQFKILTGSETTVDFAYLAGADGVVPGLGNVDPAAYAALAKLCLDGKWAEAAALQKRINHLFHIVFVGDTSHMSGSSAGLGGFKTALAHLGIIESNAMAVPHQSLSDEETARIHAIVDEFLYTA
- Km ([1]; other: pH 7.5, pH 7.5): 14.7 mM
- Vmax ([1]; other: pH 7.5, pH 7.5): 10.98 U/mg
- Km ([1]; other: pH 8.5, pH 8.5): 72.4 mM
- Vmax ([1]; other: pH 8.5, pH 8.5): 76.64 U/mg
- Km ([2]; other: pH 7.5, pH 7.5): 53.3 mM
- Vmax ([2]; other: pH 7.5, pH 7.5): 10.2 U/mg
- Km ([2]; other: pH 8.5, pH 8.5): 92.1 mM
- Vmax ([2]; other: pH 8.5, pH 8.5): 73.2 U/mg
- Km ([3]; other: pH 7.5, pH 7.5): 33.5 mM
- Vmax ([3]; other: pH 7.5, pH 7.5): 16.74 U/mg
- Km ([3]; other: pH 8.5, pH 8.5): 87.7 mM
- Vmax ([3]; other: pH 8.5, pH 8.5): 79.6 U/mg
